Data: patent US5834259A, “Process and composition for preparing D-aspartic acid” (Monsanto Company, priority 1996, dated 1998)

Experiments:
[1] = target: T1, L-aspartate-α-decarboxylase (Escherichia coli, UniProt P0A790); assay: Re-treatment of Example 3 supernatant fluid with fresh cells (Example 4); format: biochemical, E. coli K12; details: 37° C.
T1 construct: expressed in transfected cells; host or cells: E. coli W3110 transformed with pIF309 = strain NS3291 (ATCC 98675), whole cells
Source text: In all of the Examples herein, D- and L-aspartic acid isomers were quantified by HPLC using the following precolumn derivatization method. Aspartic acid was converted into diastereomers using ortho-phthalaldehyde and N-acetyl-L-cysteine. Separation of the diastereomers was achieved on a Supelcosil™ LC-18DB, 3μ, 150×4.6 mm column using a mobile phase of A: 20% methanol/80% triethylamine phosphate and B: methanol, and a step gradient as follows: […]
In this Example the supernatant fluid from Example 3 was re-treated with fresh cells. The reaction from Example 3, stopped at 68 hours, was centrifuged for 45 minutes in a GS-3 rotor at 7000 rpm. The supernatant fluid, 990 ml, was separated from the cells. 963 ml of this supernatant fluid was mixed with 137 ml fresh cells and placed in a 2 L fermentor. Bioconversion took place with mixing at 300 rpm, without automatic pH control and at a temperature of 37° C. Samples, approximately 1 ml, were removed over time and analyzed as in Example 3.

[2] = target: T1, L-aspartate-α-decarboxylase; assay: 1.0M D/L-aspartate, 100 g/l cells, reaction A (Example 6); format: biochemical, E. coli K12; details: for concentration in supernatant fluid: 1.0M, 100 g/l cells, 37° C.
Description: 1.0M D/L-aspartate was tested as a substrate for two enzyme cell loads, 100 g/l cells, referred to here as reaction "A", and 50 g/l cells, referred to here as reaction "B".
133.1 g of D/L-aspartic acid was dissolved in approximately 600 ml deionized H2 O and pH was adjusted to 7.0 with NaOH, using 100 ml of 10N NaOH and a small amount of 1.0N NaOH. The substrate for reaction A was brought to 963 ml with deionized H2 O. The reaction was started with 137 ml cells that were stored in the cold room. For reaction B, the substrate was brought to a volume of 981.5 ml. The reaction was started with […] cells.
Both reactions were carried out in 2 L fermentors at pH 7.0 without constant adjustments and at 37° C. Samples were removed over time, centrifuged and the supernatant fluid was diluted and submitted for D- and L-aspartic acid HPLC analysis.

T1 sequence (P0A790 25-126): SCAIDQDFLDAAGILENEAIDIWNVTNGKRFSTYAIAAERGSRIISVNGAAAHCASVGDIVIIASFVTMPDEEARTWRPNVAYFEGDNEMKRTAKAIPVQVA
T1 sequence (P0A790 1-24): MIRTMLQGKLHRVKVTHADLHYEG

| SMILES | concentration in supernatant fluid ([1]; 0.0000 hr) [mg/mL] | concentration in supernatant fluid ([1]; 2.7500 hr) [mg/mL] | percent remaining ([1]; 2.7500 hr) [%] | concentration in supernatant fluid ([1]; 13.500 hr) [mg/mL] | percent remaining ([1]; 13.500 hr) [%] | concentration in supernatant fluid ([1]; 15.000 hr) [mg/mL] | percent remaining ([1]; 15.000 hr) [%] | concentration in supernatant fluid ([1]; 19.500 hr) [mg/mL] | percent remaining ([1]; 19.500 hr) [%] | concentration in supernatant fluid ([1]; 23.500 hr) [mg/mL] | percent remaining ([1]; 23.500 hr) [%] | concentration in supernatant fluid ([1]; 39.000 hr) [mg/mL] | percent remaining ([1]; 39.000 hr) [%] | concentration in supernatant fluid ([1]; 47.000 hr) [mg/mL] | percent remaining ([1]; 47.000 hr) [%] | concentration in supernatant fluid ([1]; 51.750 hr) [mg/mL] | percent remaining ([1]; 51.750 hr) [%] | concentration in supernatant fluid ([1]; 68.500 hr) [mg/mL] | percent remaining ([1]; 68.500 hr) [%] | concentration in supernatant fluid ([2]; 0.0000 hr) [mg/mL] | also measured |
| --- | --- | --- | --- | --- | --- | --- | --- | --- | --- | --- | --- | --- | --- | --- | --- | --- | --- | --- | --- | --- | --- |
| N[C@H](CC(=O)O)C(=O)O [D-Asp, D-aspartic acid] | 21.450 | 21.350 | 99.534 | 21.190 | 98.788 | 20.770 | 96.830 | 21.480 | 100.14 | 20.880 | 97.343 | 19.080 | 88.951 | 17.280 | 80.559 | 17.010 | 79.301 | 14.900 | 69.464 | 53.600 | concentration in supernatant fluid ([2]; 2.0000 hr): 50.680 mg/mL; concentration in supernatant fluid ([2]; 4.5000 hr): 44.920 mg/mL; concentration in supernatant fluid ([2]; 7.0000 hr): 42.260 mg/mL; concentration in supernatant fluid ([2]; 22.500 hr): 35.680 mg/mL; concentration in supernatant fluid ([2]; 24.000 hr): 34.420 mg/mL; concentration in supernatant fluid ([2]; 31.000 hr): 32.660 mg/mL; concentration in supernatant fluid ([2]; 37.500 hr): 27.950 mg/mL; concentration in supernatant fluid ([2]; 47.000 hr): 20.710 mg/mL; concentration in supernatant fluid ([2]; 50.500 hr): 18.490 mg/mL; concentration in supernatant fluid ([2]; 53.800 hr): 13.730 mg/mL; concentration in supernatant fluid ([2]; 58.000 hr): 13.410 mg/mL; concentration in supernatant fluid ([2]; 70.000 hr): 6.1300 mg/mL; concentration in supernatant fluid ([2]; 72.000 hr): 5.3900 mg/mL |
| N[C@@H](CC(=O)O)C(=O)O [L-Asp, L-aspartic acid] | 0.43 | 0.11 | 25.581 | 0.09 | 20.930 | 0.08 | 18.605 | 0.09 | 20.930 | 0.07 | 16.279 | 0.1 | 23.256 | 0.16 | 37.209 | 0.23 | 53.488 | 0.55 | 127.91 | 54.850 | concentration in supernatant fluid ([1]; 0.0000 hr, listed as L-aspartic acid): 0.43 mg/mL; concentration in supernatant fluid ([1]; 23.500 hr, listed as L-aspartic acid): 0.07 mg/mL; concentration in supernatant fluid ([1]; 68.500 hr, listed as L-aspartic acid): 0.55 mg/mL; concentration in supernatant fluid ([2]; 0.0000 hr, listed as L-aspartate): 53.6 mg/mL; concentration in supernatant fluid ([2]; 2.0000 hr): 49.340 mg/mL; concentration in supernatant fluid ([2]; 4.5000 hr): 50.710 mg/mL; concentration in supernatant fluid ([2]; 7.0000 hr): 50.230 mg/mL; concentration in supernatant fluid ([2]; 22.500 hr): 54.490 mg/mL; concentration in supernatant fluid ([2]; 24.000 hr): 50.780 mg/mL; concentration in supernatant fluid ([2]; 31.000 hr): 51.450 mg/mL; concentration in supernatant fluid ([2]; 37.500 hr): 53.850 mg/mL; concentration in supernatant fluid ([2]; 47.000 hr): 52.370 mg/mL; concentration in supernatant fluid ([2]; 50.500 hr): 51.080 mg/mL; concentration in supernatant fluid ([2]; 53.800 hr): 46.500 mg/mL; concentration in supernatant fluid ([2]; 58.000 hr): 50.040 mg/mL; concentration in supernatant fluid ([2]; 70.000 hr): 52.400 mg/mL; concentration in supernatant fluid ([2]; 72.000 hr): 50.430 mg/mL; concentration in supernatant fluid ([2]; 72.000 hr, listed as L-aspartate): 5.39 mg/mL; reduction of L-aspartate ([2]; after 72.0 hours, 1.0M substrate): 90% |
